Results reported in ChEMBL document CHEMBL1201862, “PubChem BioAssay data set” (2004).
Activity calls are given as the source filed them.

Key:
[1] = target: T1, Tyrosine-protein phosphatase non-receptor type 7 (Homo sapiens, UniProt P35236); experiment: redox-active compounds inhibiting HePTP phosphatase – biochemical, fluorescence, mechanism study (AID 2068); assay type: functional
T1 sequence (P35236 whole entry): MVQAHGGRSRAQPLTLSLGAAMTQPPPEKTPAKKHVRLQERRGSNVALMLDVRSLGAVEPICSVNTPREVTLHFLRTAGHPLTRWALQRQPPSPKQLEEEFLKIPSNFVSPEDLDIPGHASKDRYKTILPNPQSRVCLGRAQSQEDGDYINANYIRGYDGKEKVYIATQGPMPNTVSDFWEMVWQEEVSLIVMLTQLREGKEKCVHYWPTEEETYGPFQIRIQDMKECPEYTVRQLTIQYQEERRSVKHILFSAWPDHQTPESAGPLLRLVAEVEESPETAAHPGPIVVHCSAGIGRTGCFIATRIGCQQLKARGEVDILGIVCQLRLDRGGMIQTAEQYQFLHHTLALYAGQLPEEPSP

[2] = target: T2, Type-1 angiotensin II receptor (Homo sapiens, UniProt P30556); experiment: agonist activity at AGTR1 – cell-based, uHTS hits, selectivity assay for APJ receptor agonist project, dose response (AID 488865); assay type: functional;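 further: beta-arrestin recruitment to AT1 measured by enzyme fragment complementation luminescence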
T2 sequence (P30556 whole entry): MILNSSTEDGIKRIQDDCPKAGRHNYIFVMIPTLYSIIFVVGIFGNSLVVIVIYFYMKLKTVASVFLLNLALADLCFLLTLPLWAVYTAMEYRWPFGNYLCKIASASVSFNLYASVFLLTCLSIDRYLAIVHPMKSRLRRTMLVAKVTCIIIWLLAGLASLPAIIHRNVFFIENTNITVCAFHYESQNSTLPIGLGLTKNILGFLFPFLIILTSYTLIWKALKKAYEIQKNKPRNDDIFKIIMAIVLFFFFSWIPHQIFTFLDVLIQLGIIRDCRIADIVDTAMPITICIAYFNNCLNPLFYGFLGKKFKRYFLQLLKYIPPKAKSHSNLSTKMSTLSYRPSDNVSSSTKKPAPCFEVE

[3] = Luminescence Cell-Based Dose Retest to Confirm Inhibitors of Cancer Stem Cells. [Related pubchem assays (depositor defined):AID2717, AID2721]; assay type: functional; conditions: Homo sapiens
[4] = target: T3, Microphthalmia-associated transcription factor (Homo sapiens, UniProt O75030); experiment: reducers of TRPM1 reporter luminescence, concentration series – cell-based, SK-MEL-5, cherry-picked, set 3, MITF inhibitor project, dose response (AID 493073); assay type: functional;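 further: SK-MEL-5 melanoma cells with luciferase driven by the MITF target TRPM1 promoter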
T3 sequence (O75030 whole entry): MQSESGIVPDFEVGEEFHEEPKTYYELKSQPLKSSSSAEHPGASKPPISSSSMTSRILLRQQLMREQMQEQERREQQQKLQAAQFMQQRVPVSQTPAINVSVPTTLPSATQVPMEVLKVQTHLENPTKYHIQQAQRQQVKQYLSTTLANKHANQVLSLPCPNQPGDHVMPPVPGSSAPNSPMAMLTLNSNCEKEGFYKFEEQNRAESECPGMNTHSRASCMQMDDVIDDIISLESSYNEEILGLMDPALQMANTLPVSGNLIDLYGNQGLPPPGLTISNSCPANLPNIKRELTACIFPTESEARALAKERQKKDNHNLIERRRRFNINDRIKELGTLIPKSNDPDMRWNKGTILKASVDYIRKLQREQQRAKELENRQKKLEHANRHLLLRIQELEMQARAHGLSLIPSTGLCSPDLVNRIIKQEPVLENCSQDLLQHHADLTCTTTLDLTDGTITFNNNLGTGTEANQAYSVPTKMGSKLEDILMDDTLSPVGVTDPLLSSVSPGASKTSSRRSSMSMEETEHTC

[5] = target: DNA (cytosine-5)-methyltransferase 1 (Homo sapiens, UniProt P26358); experiment: inhibition of DNA methylation by DNMT1 – biochemical, fluorescent molecular beacon, confirmation (AID 602386); assay type: functional
HEK293 [6] = experiment: cells; assay type: functional, cell-based; conditions: Homo sapiens
HEK293 [7] = experiment: NOD2 signaling inhibitors in MDP-stimulated cells, cell-based, uHTS, luminescence (AID 2001); assay type: functional; conditions: Homo sapiens
[8] = viability loss in THP-1 monocytes – THP-1 cells, cytotoxicity control for Vif-APOBEC3G degradation inhibitor project, dose response (AID 1117359); assay type: functional; conditions: THP-1
[9] = target: Nucleotide-binding oligomerization domain-containing protein 2 (Homo sapiens, UniProt Q9HC29); experiment: inhibition of NOD2-driven NF-kB reporter – cell-based, luminescence, uHTS, HEK293 (AID 1566); assay type: functional
HEK293 [10] = experiment: cells; assay type: functional, cell-based; conditions: Homo sapiens; remark: listed apart in the source
HEK293 [11] = experiment: cells; assay type: functional, cell-based; conditions: Homo sapiens; remark: listed apart in the source
HEK293 [12] = experiment: inhibition of NOD1-driven NF-kB reporter – cell-based, luminescence, uHTS, primary screen (AID 1578); assay type: functional; conditions: Homo sapiens
[13] = target: T4, Histone-lysine N-methyltransferase NSD2 (Homo sapiens, UniProt O96028); assay type: biochemical
T4 sequence (O96028 whole entry): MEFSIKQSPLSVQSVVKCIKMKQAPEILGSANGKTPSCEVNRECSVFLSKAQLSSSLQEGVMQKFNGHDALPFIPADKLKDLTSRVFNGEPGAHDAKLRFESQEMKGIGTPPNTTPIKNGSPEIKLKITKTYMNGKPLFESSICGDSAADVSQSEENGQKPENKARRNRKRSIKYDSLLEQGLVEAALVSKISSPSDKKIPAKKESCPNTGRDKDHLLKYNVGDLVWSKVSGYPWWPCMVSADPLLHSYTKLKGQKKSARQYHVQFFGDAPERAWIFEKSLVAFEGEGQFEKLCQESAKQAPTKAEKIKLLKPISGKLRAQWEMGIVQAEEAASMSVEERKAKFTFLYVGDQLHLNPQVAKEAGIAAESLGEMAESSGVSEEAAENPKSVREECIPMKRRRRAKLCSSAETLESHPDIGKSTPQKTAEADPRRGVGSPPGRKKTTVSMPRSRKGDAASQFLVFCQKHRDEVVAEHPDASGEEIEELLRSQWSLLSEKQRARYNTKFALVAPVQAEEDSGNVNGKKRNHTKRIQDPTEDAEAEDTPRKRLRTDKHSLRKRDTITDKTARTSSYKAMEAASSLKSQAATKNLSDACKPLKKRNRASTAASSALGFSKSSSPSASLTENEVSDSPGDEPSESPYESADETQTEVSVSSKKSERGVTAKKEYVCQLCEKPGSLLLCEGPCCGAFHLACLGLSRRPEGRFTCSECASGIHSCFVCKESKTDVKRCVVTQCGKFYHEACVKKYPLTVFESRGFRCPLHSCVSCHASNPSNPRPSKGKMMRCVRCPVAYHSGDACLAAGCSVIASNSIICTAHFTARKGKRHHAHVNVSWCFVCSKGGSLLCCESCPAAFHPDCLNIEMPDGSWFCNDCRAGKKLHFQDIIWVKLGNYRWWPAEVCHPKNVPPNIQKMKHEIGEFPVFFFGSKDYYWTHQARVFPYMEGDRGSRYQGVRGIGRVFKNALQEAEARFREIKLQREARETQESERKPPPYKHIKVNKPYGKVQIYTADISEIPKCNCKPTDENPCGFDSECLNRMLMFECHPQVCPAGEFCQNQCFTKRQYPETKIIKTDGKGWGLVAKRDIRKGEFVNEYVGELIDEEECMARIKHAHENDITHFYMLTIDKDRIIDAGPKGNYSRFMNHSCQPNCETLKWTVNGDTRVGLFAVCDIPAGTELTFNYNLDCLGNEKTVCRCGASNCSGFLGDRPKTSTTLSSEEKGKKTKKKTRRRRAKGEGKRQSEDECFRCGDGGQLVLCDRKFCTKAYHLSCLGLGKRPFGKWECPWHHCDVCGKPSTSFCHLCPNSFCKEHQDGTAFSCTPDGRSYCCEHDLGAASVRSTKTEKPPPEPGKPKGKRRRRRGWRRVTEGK

[14] = target: T5, Short transient receptor potential channel 4 (Mus musculus, UniProt Q9QUQ5); experiment: potentiation of DAMGO-evoked TRPC4 calcium signal – cell-based, HEK293 TRPC4/mu-opioid, Fluo-4 calcium, EC20 DAMGO, dose response (AID 434941); assay type: functional
T5 sequence (Q9QUQ5 whole entry): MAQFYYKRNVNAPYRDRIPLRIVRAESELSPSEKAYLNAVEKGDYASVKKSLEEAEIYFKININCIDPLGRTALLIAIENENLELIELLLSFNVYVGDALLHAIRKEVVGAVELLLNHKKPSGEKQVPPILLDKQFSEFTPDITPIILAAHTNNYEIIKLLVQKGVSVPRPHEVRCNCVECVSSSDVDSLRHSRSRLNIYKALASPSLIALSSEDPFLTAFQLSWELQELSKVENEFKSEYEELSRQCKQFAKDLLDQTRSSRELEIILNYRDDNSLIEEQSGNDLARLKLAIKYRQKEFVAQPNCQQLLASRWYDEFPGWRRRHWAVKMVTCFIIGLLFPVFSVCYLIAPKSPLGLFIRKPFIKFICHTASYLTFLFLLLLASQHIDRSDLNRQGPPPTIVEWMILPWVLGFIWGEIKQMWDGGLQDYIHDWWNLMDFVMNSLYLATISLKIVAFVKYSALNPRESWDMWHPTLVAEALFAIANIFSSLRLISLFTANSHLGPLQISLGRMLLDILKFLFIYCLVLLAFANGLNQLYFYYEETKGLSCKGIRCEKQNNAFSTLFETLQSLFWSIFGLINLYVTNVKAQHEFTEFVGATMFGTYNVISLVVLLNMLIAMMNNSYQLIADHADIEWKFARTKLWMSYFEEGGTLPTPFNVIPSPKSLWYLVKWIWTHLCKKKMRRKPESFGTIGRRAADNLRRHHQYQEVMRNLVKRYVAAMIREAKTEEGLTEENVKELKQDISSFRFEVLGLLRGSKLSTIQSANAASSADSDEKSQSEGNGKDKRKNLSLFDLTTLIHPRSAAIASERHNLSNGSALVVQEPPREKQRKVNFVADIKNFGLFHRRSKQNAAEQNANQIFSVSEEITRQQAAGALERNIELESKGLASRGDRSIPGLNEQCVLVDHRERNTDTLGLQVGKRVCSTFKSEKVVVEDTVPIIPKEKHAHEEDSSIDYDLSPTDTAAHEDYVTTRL

T-cell = experiment: loss of vesicle association with mouse CD8+ T cells – mouse 2C CD8+ T cells, flow cytometry, dose response (AID 485284); assay type: functional
Integrin alpha-L = Integrin alpha-L (Mus musculus, UniProt P24063); experiment: modulators of CD8 T cell-vesicle binding, dose response, powder samples, mouse 2C CD8+ cells (AID 504565); assay type: functional
[15] = target: Intestinal-type alkaline phosphatase (Homo sapiens, UniProt P09923); experiment: activation of human intestinal alkaline phosphatase – biochemical, dose response (AID 488873); assay type: functional
Bcl-2-like protein 1 = Bcl-2-like protein 1 (Homo sapiens, UniProt Q07817); experiment: blockers of BCLXL peptide binding – biochemical, fluorescence polarization, 1536-well, selectivity assay for MCL1 inhibitor project, dose response (AID 2218)
[16] = target: T6, Small ubiquitin-related modifier 1 (Homo sapiens, UniProt P63165); experiment: SUMO1 protein interaction blockers, potency – biochemical, fluorescence polarization, uHTS hits, dose response (AID 624382); assay type: functional; conditions: read-out: IC50_Mean
[17] = target: T6, Small ubiquitin-related modifier 1; experiment: SUMO1 protein-protein binding blockers, potency – biochemical, FRET, dose response (AID 624383); assay type: functional; conditions: read-out: IC50_Mean
[18] = target: Intestinal-type alkaline phosphatase (Mus musculus, UniProt P24822); experiment: PubChem AID 488785; assay type: functional
[19] = target: T7, Alkaline phosphatase, tissue-nonspecific isozyme (Homo sapiens, UniProt P05186); experiment: TNAP enzyme inhibition by screening hits, dose response, selectivity assay for mouse IAP inhibitor project, biochemical, human TNAP, uHTS hits (AID 488906); assay type: functional
T7 sequence (P05186 whole entry): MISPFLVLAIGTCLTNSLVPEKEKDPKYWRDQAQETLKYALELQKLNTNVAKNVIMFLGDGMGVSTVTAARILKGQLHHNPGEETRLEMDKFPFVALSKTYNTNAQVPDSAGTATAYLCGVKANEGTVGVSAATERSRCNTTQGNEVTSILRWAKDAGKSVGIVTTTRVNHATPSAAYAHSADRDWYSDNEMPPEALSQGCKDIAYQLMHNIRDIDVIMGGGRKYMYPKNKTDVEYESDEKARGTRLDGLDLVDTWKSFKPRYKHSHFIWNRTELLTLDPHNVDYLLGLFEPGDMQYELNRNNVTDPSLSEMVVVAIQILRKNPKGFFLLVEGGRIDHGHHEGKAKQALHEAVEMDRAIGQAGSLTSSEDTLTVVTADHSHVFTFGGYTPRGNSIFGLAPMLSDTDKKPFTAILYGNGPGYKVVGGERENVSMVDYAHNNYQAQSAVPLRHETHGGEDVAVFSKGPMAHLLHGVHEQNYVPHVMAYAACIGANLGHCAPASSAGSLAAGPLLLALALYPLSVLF

[20] = target: Induced myeloid leukemia cell differentiation protein Mcl-1 (Homo sapiens, UniProt Q07820); experiment: blockers of MCL1 binding to BIM peptide – biochemical, fluorescence polarization, BIM-BH3 peptide, 1536-well, dose response (AID 2217)
Sequence of Induced myeloid leukemia cell differentiation protein Mcl-1 (Q07820 whole entry): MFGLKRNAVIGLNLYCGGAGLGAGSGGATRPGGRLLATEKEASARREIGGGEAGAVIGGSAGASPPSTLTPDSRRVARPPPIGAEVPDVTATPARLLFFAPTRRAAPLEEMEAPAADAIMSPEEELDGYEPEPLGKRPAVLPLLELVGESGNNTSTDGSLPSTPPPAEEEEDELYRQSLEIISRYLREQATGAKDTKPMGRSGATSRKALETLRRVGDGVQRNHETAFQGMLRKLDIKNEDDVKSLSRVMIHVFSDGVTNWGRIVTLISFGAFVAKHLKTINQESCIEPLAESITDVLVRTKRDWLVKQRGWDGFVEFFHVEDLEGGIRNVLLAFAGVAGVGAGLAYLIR

Sequence of DNA (cytosine-5)-methyltransferase 1 (P26358 whole entry): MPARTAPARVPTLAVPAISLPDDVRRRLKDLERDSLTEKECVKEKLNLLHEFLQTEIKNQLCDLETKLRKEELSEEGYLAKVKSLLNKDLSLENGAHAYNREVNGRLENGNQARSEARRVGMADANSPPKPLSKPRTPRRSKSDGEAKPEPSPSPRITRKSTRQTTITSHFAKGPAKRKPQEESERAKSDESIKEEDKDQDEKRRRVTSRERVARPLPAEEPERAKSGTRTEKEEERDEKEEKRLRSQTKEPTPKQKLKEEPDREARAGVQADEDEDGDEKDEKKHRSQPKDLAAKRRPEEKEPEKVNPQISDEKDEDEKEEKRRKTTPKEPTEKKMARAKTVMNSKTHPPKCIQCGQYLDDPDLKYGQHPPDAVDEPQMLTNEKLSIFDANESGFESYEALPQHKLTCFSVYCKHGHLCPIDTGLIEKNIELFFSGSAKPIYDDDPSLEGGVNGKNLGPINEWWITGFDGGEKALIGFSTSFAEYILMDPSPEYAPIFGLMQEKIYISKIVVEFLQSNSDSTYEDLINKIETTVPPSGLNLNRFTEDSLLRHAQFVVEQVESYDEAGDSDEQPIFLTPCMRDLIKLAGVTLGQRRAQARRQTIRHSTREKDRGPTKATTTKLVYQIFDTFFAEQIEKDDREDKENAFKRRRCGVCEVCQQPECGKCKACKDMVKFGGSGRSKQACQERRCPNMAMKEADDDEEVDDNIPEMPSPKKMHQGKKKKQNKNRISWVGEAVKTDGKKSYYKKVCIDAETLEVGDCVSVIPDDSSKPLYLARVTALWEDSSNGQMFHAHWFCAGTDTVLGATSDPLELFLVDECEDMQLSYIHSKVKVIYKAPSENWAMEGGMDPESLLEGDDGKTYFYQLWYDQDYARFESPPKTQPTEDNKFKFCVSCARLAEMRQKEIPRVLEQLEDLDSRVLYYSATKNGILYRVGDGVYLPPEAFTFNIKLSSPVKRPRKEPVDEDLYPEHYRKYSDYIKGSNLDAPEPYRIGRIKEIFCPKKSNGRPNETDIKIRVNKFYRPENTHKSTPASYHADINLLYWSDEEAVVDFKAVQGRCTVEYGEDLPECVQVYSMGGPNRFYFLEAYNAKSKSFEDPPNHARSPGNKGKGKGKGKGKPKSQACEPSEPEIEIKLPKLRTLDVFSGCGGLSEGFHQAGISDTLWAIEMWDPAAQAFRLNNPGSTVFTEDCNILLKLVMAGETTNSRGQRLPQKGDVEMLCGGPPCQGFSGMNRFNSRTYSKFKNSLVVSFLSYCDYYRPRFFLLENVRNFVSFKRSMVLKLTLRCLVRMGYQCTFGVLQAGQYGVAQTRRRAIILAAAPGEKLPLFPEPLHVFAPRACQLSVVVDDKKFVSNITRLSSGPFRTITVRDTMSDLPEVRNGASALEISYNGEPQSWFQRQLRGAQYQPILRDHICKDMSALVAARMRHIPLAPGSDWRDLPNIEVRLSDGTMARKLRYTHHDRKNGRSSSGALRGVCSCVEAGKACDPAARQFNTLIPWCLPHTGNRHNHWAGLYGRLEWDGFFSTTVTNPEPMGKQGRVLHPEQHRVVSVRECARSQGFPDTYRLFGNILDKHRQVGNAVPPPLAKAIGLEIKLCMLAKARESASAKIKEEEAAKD
T6 sequence (P63165 whole entry): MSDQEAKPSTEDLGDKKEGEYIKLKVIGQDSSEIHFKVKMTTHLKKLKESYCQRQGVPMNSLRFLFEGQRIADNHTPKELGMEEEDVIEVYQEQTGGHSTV
Sequence of Intestinal-type alkaline phosphatase (Homo sapiens, UniProt P09923) (P09923 whole entry): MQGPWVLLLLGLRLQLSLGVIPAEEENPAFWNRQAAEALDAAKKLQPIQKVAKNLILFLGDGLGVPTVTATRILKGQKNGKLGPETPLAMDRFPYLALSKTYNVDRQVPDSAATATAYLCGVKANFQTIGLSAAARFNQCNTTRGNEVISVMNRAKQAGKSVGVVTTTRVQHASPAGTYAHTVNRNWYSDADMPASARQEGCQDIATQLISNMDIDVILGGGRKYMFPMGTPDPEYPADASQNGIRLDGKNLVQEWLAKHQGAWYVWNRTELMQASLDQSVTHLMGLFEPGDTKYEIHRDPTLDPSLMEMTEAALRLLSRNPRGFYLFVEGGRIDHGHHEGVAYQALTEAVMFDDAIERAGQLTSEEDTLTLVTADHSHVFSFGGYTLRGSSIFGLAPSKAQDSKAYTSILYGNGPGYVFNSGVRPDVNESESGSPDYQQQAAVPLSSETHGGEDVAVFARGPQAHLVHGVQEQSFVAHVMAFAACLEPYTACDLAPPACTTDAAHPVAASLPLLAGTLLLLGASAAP
Sequence of Intestinal-type alkaline phosphatase (Mus musculus, UniProt P24822) (P24822 whole entry): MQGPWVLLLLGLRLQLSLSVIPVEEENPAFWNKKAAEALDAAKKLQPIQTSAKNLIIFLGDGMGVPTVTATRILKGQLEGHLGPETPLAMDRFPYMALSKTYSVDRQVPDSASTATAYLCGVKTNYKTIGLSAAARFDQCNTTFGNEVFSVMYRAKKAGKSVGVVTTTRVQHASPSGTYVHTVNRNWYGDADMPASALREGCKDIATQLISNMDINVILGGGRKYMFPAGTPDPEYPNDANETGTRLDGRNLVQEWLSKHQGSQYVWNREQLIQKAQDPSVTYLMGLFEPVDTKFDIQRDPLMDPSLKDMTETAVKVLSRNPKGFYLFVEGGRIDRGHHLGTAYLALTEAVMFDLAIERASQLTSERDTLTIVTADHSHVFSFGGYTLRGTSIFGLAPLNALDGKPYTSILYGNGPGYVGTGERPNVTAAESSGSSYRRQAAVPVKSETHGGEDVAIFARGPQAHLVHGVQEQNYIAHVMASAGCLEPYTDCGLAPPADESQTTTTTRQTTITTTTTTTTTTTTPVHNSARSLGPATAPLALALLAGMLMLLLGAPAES
Sequence of Bcl-2-like protein 1 (Q07817 whole entry): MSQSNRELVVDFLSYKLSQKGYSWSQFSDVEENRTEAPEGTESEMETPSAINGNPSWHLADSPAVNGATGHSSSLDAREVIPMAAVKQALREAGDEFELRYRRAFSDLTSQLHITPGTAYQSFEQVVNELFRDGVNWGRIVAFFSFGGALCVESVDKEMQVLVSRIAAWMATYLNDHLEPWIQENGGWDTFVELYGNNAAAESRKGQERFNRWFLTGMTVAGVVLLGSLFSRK
Sequence of Nucleotide-binding oligomerization domain-containing protein 2 (Q9HC29 whole entry, the tested form may be a part): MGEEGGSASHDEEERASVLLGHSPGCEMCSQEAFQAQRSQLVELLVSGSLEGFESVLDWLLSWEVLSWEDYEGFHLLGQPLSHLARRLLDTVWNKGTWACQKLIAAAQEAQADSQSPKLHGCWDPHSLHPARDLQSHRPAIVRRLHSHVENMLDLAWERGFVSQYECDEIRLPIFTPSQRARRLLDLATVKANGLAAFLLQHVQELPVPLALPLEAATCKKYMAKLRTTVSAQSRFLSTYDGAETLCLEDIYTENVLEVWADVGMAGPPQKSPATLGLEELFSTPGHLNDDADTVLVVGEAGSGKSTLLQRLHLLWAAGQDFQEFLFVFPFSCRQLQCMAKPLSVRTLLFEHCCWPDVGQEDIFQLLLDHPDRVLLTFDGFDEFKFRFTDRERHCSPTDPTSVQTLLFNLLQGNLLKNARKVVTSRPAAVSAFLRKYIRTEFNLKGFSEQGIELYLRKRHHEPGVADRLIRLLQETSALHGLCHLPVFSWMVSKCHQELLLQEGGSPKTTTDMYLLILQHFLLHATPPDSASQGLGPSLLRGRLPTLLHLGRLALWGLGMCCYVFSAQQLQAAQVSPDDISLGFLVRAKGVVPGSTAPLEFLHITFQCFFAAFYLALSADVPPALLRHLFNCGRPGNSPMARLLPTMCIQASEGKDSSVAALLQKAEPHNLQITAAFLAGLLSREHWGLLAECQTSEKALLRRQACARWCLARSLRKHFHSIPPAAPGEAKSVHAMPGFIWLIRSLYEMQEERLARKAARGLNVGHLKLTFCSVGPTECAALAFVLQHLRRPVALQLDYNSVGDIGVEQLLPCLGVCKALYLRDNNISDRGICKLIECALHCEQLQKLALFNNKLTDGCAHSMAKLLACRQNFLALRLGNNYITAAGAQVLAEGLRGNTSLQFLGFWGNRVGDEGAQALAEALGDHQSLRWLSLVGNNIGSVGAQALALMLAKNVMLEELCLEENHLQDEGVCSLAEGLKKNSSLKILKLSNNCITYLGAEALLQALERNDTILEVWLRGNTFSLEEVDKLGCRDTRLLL

## O=C(Nc1ccc2nc(-c3ccco3)c(-c3ccco3)nc2c1)NC1CCCCC1
[1]
  IC50: > 50 µM (inactive)

## CCCCCCc1cc2cc(-c3nnc(-c4cc(OC)c(OC)c(OC)c4)o3)c(=O)oc2cc1O
[2]
  EC50: > 100 µM (inactive)
[3]
  AC50: 7.35 µM (active)

## CC(C)N1C(=O)/C(=C/C=C/c2ccco2)C(=O)N(Cc2ccco2)C1=O
[4]
  AC50: 9.97 µM (active)
[5]
  IC50: 8.31 µM (active)
HEK293 [6]
  IC50: 18.8 µM (active)
HEK293 [7]
  IC50: > 20 µM (inactive)
[8]
  CC50: > 40 µM (active)
[9]
  EC50: > 20 µM (inactive)
HEK293 [10]
  IC50: > 20 µM (inactive)
HEK293 [11]
  IC50: > 20 µM (inactive)
HEK293 [12]
  EC50: > 20 µM (inactive)
[13]
  AC50: 8.26 µM (active)

## CCn1c(O)c(N=NC(=O)c2cccc(S(=O)(=O)N3CCCCC3)c2)c2ccccc21
[14]
  EC50: 2.37 µM (active)

## CCN(CC)S(=O)(=O)c1ccc(Cl)c(NC(=O)COC(=O)C2CCCCC2)c1
T-cell
  EC50: 0.246 µM (active)
Integrin alpha-L
  EC50: 0.026 µM (active)

## O=S(=O)(c1cc(O)ccc1O)c1cccc2c(S(=O)(=O)c3cc(O)ccc3O)cccc12
[5]
  IC50: 3.81 µM (active)
[15]
  EC50: 15 µM (active)
Bcl-2-like protein 1
  IC50: > 109 µM (not active)
[16]
  IC50: > 66.6 µM (inactive)
[17]
  IC50: 5.39 µM (active)
[18]
  IC50: 12.8 µM (active)
[19]
  IC50: 38.9 µM (active)
[20]
  IC50: 8.31 µM (active)
